In patent US20200354411A1, “Chimeric Molecule for Targeting c-Myc in Cells” (priority 2017, published 2020):
pEC50: −log10 of the molar value. “Also recorded” adds a separate entry of the source. Read-outs that look alike come from different tables or passages of the source.

Assays:
c-Myc = test: E-Box luciferase reporter, c-Myc transcriptional activity in A431 cells; type: cell-based; conditions: for pEC50: A431 cells expressing luciferase upon E-Box promoter
Text: (§1) All cell lines come from ATCC. Lentiviruses were generated according to the manufacturer's instructions (Invitrogen). WT A431 cells were transduced with Cignal Lenti Myc Reporter (Qiagen) expressing Luciferase upon E-Box promoter and CMV-Renilla Control CLS-RCL expressing Renilla upon CMV promoter. Single clone was selected after colony isolation and Luciferase/Renilla expression level tested. All cell lines (A431 and HepG2) were maintained in high-glucose Dulbecco's modified Eagle's medium supplemented with 10% foetal calf serum at 37° C. in a 10% CO2 incubator. All experiments were performed on cells passaged fewer than 10 times after thawing.
40,000 A431-Ebox-luc-CMV-Ren cells were seeded in a 96-well plate (Falcon) 48 hours. Luminescence is detected using the Promega Dual-Glo luciferase assay system, according to the manufacturer's protocol and read using Tecan Infinite M200 microplate reader using 100 ms integration time. […]

[1] = test system: Hepatocarcinoma HepG2 cells; test: DRAQ7 cell mortality assay; type: cell-based; conditions: 24 hours
Method: 25000 HepG2 cells were seeded per well in a 96-well plate. After incubation at 37° C. for 24 hours, DRAQ7 dye was prepared with 100 nM tPE-H1 at 500 times dilution
Cell mortality was tracked by acquiring nine fields of brightfield and far-red images at 20× magnification every 4 hours using the Operetta machine (Perkin-Elmer) for 3 to 5 days. The machine kept the plate incubated at 37° C. with 8% CO2.
(§2) It is of note that the experiments outlined above were also performed using the tPE-Omomcy fusion protein, results of which are shown in FIG. 2B, and FIGS. 12 to 15. The concentration of the tPE-Omomyc fusion protein is as stated on the x-axis in FIGS. 12 and 14; 200 nM for FIG. 2B; and 10 nM for FIGS. 13 and 15.

c-Myc regulated genes = test: RT-PCRQ of c-Myc regulated transcripts; type: cell-based, human; conditions: A431, 100 nM overnight (16 hours)
Method: 400000 A431 cells were seeded in each well in a 6 well plate (Falcon) 24 hours before incubation with 100 nM tPE-H1 for 16 hours at 37° C. Total RNA was isolated using the RNeasy Mini Kit (Qiagen, Ref. no 74106) as described by manufacturer's protocol.
10 μg total RNA was reversed transcribed using SuperScript III First-Strand Synthesis System for RT-PCR (Invitrogen, Cat. no. 18080051) as described by manufacturer's protocol.
The relative expression of mRNAs of c-Myc regulated genes identified in RT^2 Profiler™ PCR Array Human MYC Targets (Qiagen, Cat. no. PAHS-177Z) was determined by real-time quantitative RT-PCR. Briefly, a PCR component mix containing cDNA, RT^2 SYBR Green Mastermix (Qiagen, Cat. no. 330523) and RNase-free water is prepared. 25 μl of the PCR reaction was added to each well in one array plate and subjected to a qPCR program using the ABI 7500. PCR cycling conditions comprised of an initial denaturation step at 95° C. for 10 minutes followed by an amplification program for 40 cycles of 15 seconds at 95° C., and 60 seconds at 60° C. with fluorescence acquisition at the end of each extension. The relative expression of each gene between treated and untreated samples is calculated using the comparative ΔΔCT method, using the mock treated sample as calibrator and housekeeping gene HPRT as internal control.

[2] = test system: Renilla upon CMV promoter; test: CMV-Renilla control reporter in A431 cells; type: cell-based; conditions: 50 nM, 6 hours
Text: as §1
40,000 A431-Ebox-luc-CMV-Ren cells were seeded in a 96-well plate (Falcon) 48 hours. Luminescence is detected using the Promega Dual-Glo luciferase assay system, according to the manufacturer's protocol and read using Tecan Infinite M200 microplate reader using 100 ms integration time.

c-Myc/Max complex = molecular target: T1, c-Myc/Max complex (Homo sapiens, UniProt P01106); test: c-Myc co-immunoprecipitation with Max; type: cell-based; conditions: 200 nM, 1 hour, A431
T1 construct: endogenous in cells; host or cells: A431
Method: A431 cells seeded at the desired densities in six-well dishes (Thermo Fisher Scientific) and incubated at 37° C., 10% CO2 for 16 hours. Cells were treated for 1 hour with mock, tPE or tPE-H1 200 nM before lysis in RIPA buffer for 20 minutes at 4° C. and centrifugation for 20 minutes at 15 000 g at 4° C. Soluble fractions were added with c-myc antibody (#32, Abcam) on orbital wheel for 4 hours at 4° C. Protein A Sepharose (GE Healthcare) was added and incubated overnight on orbital wheel at 4° C. After three washes, proteins were eluted in one volume of Laemmli blue 2X and heat-denaturated for 5 minutes at 95° C. Samples were run on SDS-PAGE before western blot. Membrane are blocked in milk and incubated with anti Max (#199489, Abcam) and anti c-Myc (#32072, Abcam).

[3] = test system: HeLa, A431, MG63, MDA-MD231, and HCT116; test: Sensitivity of other cell lines (data not shown); type: cell-based
A431 cells [4] = test: A431 cell proliferation (IncuCyte live imaging); type: cell-based
Method: (§3) Cells were seeded at 10 to 20% confluency. 24 hours later, the cells were incubated with different doses of tPE-H1 at 37° C., 10% CO2 for 14 days. Live imaging was performed using IncuCyte ZOOM® Live-Cell Analysis System. Bright field Images were taken every 6 hours. Images were analysed using IncuCyte ZOOM® Live-Cell Analysis software.

A431 cells [5] = test: Cell fractionation, subcellular location; type: cell-based; conditions: for subcellular location after cell fractionation: 200 nM, 1 hour, A431; for time to reach the nucleus: after incubation
Method: Cells were seeded at the desired densities in six-well dishes (Thermo Fisher Scientific) and incubated at 37° C., 10% CO2 for 16 hours. Cells were treated for 1 hour with mock (untreated cells) or tPE-H1 200 nM before fractionation with Cell Surface Protein Isolation Kit (#89881, Thermo Fisher Scientific) according to the manufacturer's protocol. In addition, cytosolic fraction is centrifuge at 15 000 g for 15 minutes to remove membrane contaminants. Samples are denaturated in Laemmli blue 2X and heat-denaturated for 5 minutes at 95° C. Samples are loaded on SDS-PAGE followed by western blot.
as §2

[6] = test system: Hepatocarcinoma HepG2 cells; test: HepG2 cell proliferation (IncuCyte live imaging); type: cell-based; conditions: for concentration above which no proliferation / absence of cell growth: HepG2, 2 weeks
Method: as §3, §2

[7] = 6 hours, read-out: EC50 on c-Myc transcriptional activity, CPP fused to H1
[8] = 6 hours, read-out: EC50 on c-Myc transcriptional activity (c-Myc-dependent luciferase activity)
[9] = tPE-H1 50 nM, A431 E-Box luciferase
[10] = tPE-Omomyc 10 nM, A431 E-Box luciferase

T1 sequence (P01106 whole entry, one chain of several): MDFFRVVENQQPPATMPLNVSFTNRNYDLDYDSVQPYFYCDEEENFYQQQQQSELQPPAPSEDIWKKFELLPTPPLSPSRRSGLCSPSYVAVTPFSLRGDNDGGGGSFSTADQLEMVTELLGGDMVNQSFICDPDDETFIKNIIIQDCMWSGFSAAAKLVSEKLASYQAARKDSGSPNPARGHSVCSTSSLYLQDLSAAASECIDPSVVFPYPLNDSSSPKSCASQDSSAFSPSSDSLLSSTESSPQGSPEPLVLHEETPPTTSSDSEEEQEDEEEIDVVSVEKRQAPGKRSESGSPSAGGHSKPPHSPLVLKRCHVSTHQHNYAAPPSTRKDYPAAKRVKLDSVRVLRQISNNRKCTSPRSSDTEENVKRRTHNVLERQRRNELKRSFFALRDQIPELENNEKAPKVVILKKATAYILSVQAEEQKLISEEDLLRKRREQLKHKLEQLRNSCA

Substance: cell targeting peptide Antenapedia fused to H1: RQIKIWFQNRRMKWKK NELKRAFAALRDQI [Int-H1, reference compound]
- pEC50 (c-Myc; 6 hours, listed as Antenapedia, read-out: EC50 on c-Myc transcriptional activity, CPP fused to H1): 3.70
- pEC50 (c-Myc; 6 hours, listed as int-H1, read-out: EC50 on c-Myc transcriptional activity, CPP fused to H1): ~3.70

Substance: cell targeting peptide Cadherin fused to H1: LLIILLRRRIRKQAHAHSK NELKRAFAALRDQI [CAD-H1, reference compound]
- pEC50 (c-Myc; 6 hours, listed as Cadherin, read-out: EC50 on c-Myc transcriptional activity, CPP fused to H1): 4.12
- pEC50 (c-Myc; [7]): ~4.12

Substance: cell targeting peptide TAT fused to H1: GRKKRRQRRRPPQ NELKRAFAALRDQI [Tat-H1, reference compound]
- pEC50 (c-Myc; 6 hours, listed as TAT, read-out: EC50 on c-Myc transcriptional activity, CPP fused to H1): 3.30
- pEC50 (c-Myc; [7]): ~3.30

Substance: tPE-H1: fusion protein: PE domains Ia and II genetically fused to mutated H1 peptide (S6A, F8A), SEQ ID NO: 14
- number of dead (DRAQ7 positive) cells ([1]; HepG2, 100 nM): cells death; also recorded: increase of the number of dead cells
- mRNA amount of transcripts regulated by c-Myc (c-Myc regulated genes): decrease of numerous upregulated genes under tPE-H1 treatment and an increase of numerous down regulated genes
- effect on Renilla luciferase (CMV promoter control) [2]: not affected
- effect on c-Myc/Max interaction (co-IP of Max with c-Myc) (c-Myc/Max complex): disrupted the c-Myc/Max interaction
- more efficient than H1 fused to cell penetrating peptides (TAT, CAD, int) (c-Myc): at least 1000 times
- decrease in Myc reporter activity (c-Myc; 50 nM): > 90%
- effect on E-Box luciferase (c-Myc; 50 nM, 6 hours, A431): decrease of the luciferase
- pEC50 (c-Myc; [8]): 7.60
- time of peak activity / maximal inhibition of luciferase (c-Myc; [9]): 8 h
- time over which maximal inhibition was stable (c-Myc; [9]): more than 24 hours
- relative sensitivity of all cell lines tested, tPE-H1 versus tPE-Omomyc ([3]; all the cell lines tested): around 10 times
- cell proliferation (A431 cells [4]; A431, 50 nM and 100 nM, over 2 weeks): slower cell proliferation
- cell proliferation, dose response (A431 cells [4]; A431, 50 to 400 nM): dose dependent decrease in cell proliferation
- concentration above which no proliferation / total absence of growth (A431 cells [4]; A431, over 2 weeks): above 200 nM
- subcellular location after cell fractionation (A431 cells [5]): location in the nucleus
- time to reach the nucleus (A431 cells [5]): less than 1 hour
- concentration sufficient to block HepG2 cell proliferation and induce cell death/apoptosis [6]: 100 nM
- cell proliferation ([6]; HepG2, 10 nM and 25 nM, over 2 weeks): slower cell proliferation
- concentration above which no proliferation / absence of cell growth [6]: above 50 nM

Substance: tPE-Omomyc: fusion protein: PE domains Ia and II genetically fused to Omomyc peptide, SEQ ID NO: 15
- number of dead (DRAQ7 positive) cells ([1]; HepG2, 10 nM): significant increase; also recorded: increase of the number of dead cells
- pEC50 (c-Myc; [8]): 8.30
- time of peak activity / maximal inhibition of luciferase (c-Myc; [10]): 16 h
- time over which maximal inhibition is stable (c-Myc; [10]): more than 24 hours
- concentration to which cell lines were sensitive ([3]; HeLa, A431, MG63, MDA-MD231, HCT116, data not shown): about 10 nM
- subcellular location after cell fractionation (A431 cells [5]): located in nuclear fraction; also recorded: in the nuclear fraction
- time to reach the nucleus (A431 cells [5]): ≤ 1 h
- concentration sufficient to block HepG2 cell proliferation and induce cell death/apoptosis [6]: 10 nM
- cell proliferation ([6]; HepG2, 2.5 nM and 5 nM, 2 weeks): slower cell proliferation
- cell proliferation, different doses ([6]; HepG2, 1 to 10 nM): decrease in cell proliferation
- concentration above which no proliferation / absence of cell growth [6]: above 10 nM
